From US11992535B2, “Compounds and probes for imaging huntingtin protein” (CHDI Foundation, Inc., priority 2019, dated 2024)
Where two headings read alike, the source gives them in different places.

Molecular target: aggregated MBP-HTT(1-89)Q46-His(6×) (Exonl-Q46) protein (Q46 protein aggregates) (Homo sapiens (Human), UniProt P42858, INS38QQQQQQQQQQQQQQQQQQQQQQQQQ)
Test: Q46 Radioligand Binding Assay
Details: read-out: Q46_RBA EC50_
Method: Q46 Radioligand Binding Assay
For radioligand binding assays (RBA) MBP-HTT(1-89)Q46-His(6×) (“Exonl-Q46”) protein was generated based on a previous publication (Scherzinger et al. Cell, Vol. 90, 549-558, Aug. 8, 1997). For experiments 30 μM MBP-Exonl-Q46 was incubated with 150 μg/mL thrombin in assay buffer (150 mM NaCl, 50 mM Tris pH 8.0) and 2 mM CaCl2 for 16 hours at 37° C. Aggregated Exonl-Q46 was pelleted by centrifugation for 5 minutes at 13,000 rpm in a bench top centrifuge and re-dissolved in the same volume of assay buffer. Test compounds were prepared by titration in DMSO at 11 concentrations from 63 μM to 2 nM. For the RBA, Q46 protein aggregates and test compounds were pre-incubated in assay buffer for 20 minutes at room temperature, in 100 μL/well in a 96-well plate (pp, round bottom). Then, ligand was added in 50 μL/well and incubated for 60 minutes at 37° C. Final assay concentrations were 1 μM to 30 μM test compound, 1 μM Exonl-Q46 protein (equivalent monomer concentration) and 0.3 nM ligand [^3H3-methyl]-5-((5-methoxypyridin-2-yl)methoxy)-2-(pyrazin-2-yl)benzo[d]oxazole. Samples were transferred onto GF/B filter plates and washed 2× with 200 μL PBS using a Filtermate Harvester. After drying filter plates for 1 hour at 55° C., the back of the plates were sealed with foil and 30 μL/well scintillation fluid (Packard MicroScint 40) added, incubated for 15 minutes in the dark and counted in a MicroBeta reader. For analysis, replicate data from independent assay plates were normalized towards 0% and 100% inhibition using control wells of vehicle (0% inhibition) and 1 μM unlabelled [^3H3-methyl]-5-((5-methoxypyridin-2-yl)methoxy)-2-(pyrazin-2-yl)benzo[d]oxazole (100% inhibition). IC50 values were determined with a sigmoidal inhibition model with four variables (top, bottom, slope, IC50) in a global fit using the normalized replicate data.

[1] = displacement of 0.3 nM [3H3-methyl]-5-((5-methoxypyridin-2-yl)methoxy)-2-(pyrazin-2-yl)benzo[d]oxazole from 1 μM Exonl-Q46 aggregates, method calls the values IC50
[2] = same radioligand displacement on Exonl-Q46 aggregates

Chain of aggregated MBP-HTT(1-89)Q46-His(6×) (Exonl-Q46) protein (Q46 protein aggregates) (P42858 other isoform, or with tags, fused parts or gaps, stated change not applied): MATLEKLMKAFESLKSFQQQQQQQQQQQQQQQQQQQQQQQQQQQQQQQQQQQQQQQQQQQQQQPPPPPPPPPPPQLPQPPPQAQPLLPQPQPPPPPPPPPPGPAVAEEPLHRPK

| Structure (SMILES) | EC50 [1] [µM] | EC50 [2] [µM] |
| --- | --- | --- |
| COc1ccc(COc2ccc3c(c2)CN(c2ccc(OC)cn2)CC3)nc1 [Example 8, 2-(5-Methoxypyridin-2-yl)-7-[(5-methoxypyridin-2-yl)methoxy]-1,2,3,4-tetrahydroisoquinoline] | 0.00179 | < 0.1 |
| COc1ccc(COc2ccc3c(c2)CN(c2cc(OC)ccn2)CC3)nc1 [Example 8.1] | 0.0017 | < 0.1 |
| COc1ccc(COc2ccc3c(c2)CN(c2cccc(OC)n2)CC3)nc1 [Example 8.2] | 0.00202 | < 0.1 |
| COc1ccc(COc2ccc3c(c2)C(C)N(C(=O)c2ccc(OC)nc2)CC3)nc1 (centres unmarked) [Example 9, 7-[(5-Methoxypyridin-2-yl)methoxy]-2-(6-methoxypyridine-3-carbonyl)-1-methyl-1,2,3,4-tetrahydroisoquinoline] | 0.0145 | < 0.1 |
| COc1ccc(COc2ccc3c(c2)CN(c2ccc(OC)nc2)C(=O)C3)nc1 [Example 10, 7-[(5-Methoxypyridin-2-yl)methoxy]-2-(6-methoxypyridin-3-yl)-1,2,3,4-tetrahydroisoquinolin-3-one] | 0.186 | 0.1 to 0.5 |
| COc1ccc(C(=O)Nc2ccc3c(c2)CN(c2ccc(OC)nc2)CC3)nc1 [Example 11, 5-Methoxy-N-[2-(6-methoxypyridin-3-yl)-1,2,3,4-tetrahydroisoquinolin-7-yl]pyridine-2-carboxamide] | 0.0013 | < 0.1 |
| COc1ccc(C(=O)Nc2ccc3c(c2)CN(C(=O)c2ccc(OC)nc2)CC3)nc1 [Example 12] | 0.00172 | < 0.1 |
| COc1ccc(C(=O)N(C)c2ccc3c(c2)CN(C(=O)c2ccc(OC)nc2)CC3)nc1 [Example 13] | 1 | > 0.5 |
| COc1ccc(COc2ccc3c(c2)CN(C(=O)c2cn(C)c(=O)cn2)CC3)nc1 [Example 15, 5-{7-[(5-Methoxypyridin-2-yl)methoxy]-1,2,3,4-tetrahydroisoquinoline-2-carbonyl}-1-methyl-1,2-dihydropyrazin-2-one] | 0.0568 | < 0.1 |
| COc1ccc(COc2cc3c(cn2)CCN(C(=O)c2ccc(OC)nc2)C3)nc1 [Example 16, 7-[(5-Methoxypyridin-2-yl)methoxy]-2-(6-methoxypyridine-3-carbonyl)-1,2,3,4-tetrahydro-2,6-naphthyridine] | 0.0395 | < 0.1 |
| COc1ccc(C(=O)N(C)c2ccc3c(c2)CN(c2ccc(OC)nc2)CC3)nc1 [Example 17, 5-Methoxy-N-[2-(6-methoxypyridin-3-yl)-1,2,3,4-tetrahydroisoquinolin-7-yl]-N-methylpyridine-2-carboxamide] | 0.333 | 0.1 to 0.5 |
| COc1ccc(COc2ccc3c(c2)CN(S(=O)(=O)c2ccc(OC)nc2)CC3)nc1 [Example 18, 7-[(5-Methoxypyridin-2-yl)methoxy]-2-[(6-methoxypyridin-3-yl)sulfonyl]-1,2,3,4-tetrahydroisoquinoline] | 0.39 | 0.1 to 0.5 |
| COc1ccc(OCCOc2ccc3c(c2)CN(C(=O)c2ccc(OC)nc2)CC3)nc1 [Example 19, 7-{2-[(5-Methoxypyridin-2-yl)oxy]ethoxy}-2-(6-methoxypyridine-3-carbonyl)-1,2,3,4-tetrahydroisoquinoline] | 0.0374 | < 0.1 |
| COc1ccc(OCc2cn3c(n2)CN(C(=O)c2ccc(OC)nc2)CC3)nc1 [Example 20, 5-Methoxy-2-{[7-(6-methoxypyridine-3-carbonyl)-5H,6H,7H,8H-imidazo[1,2-a]pyrazin-2-yl]methoxy}pyridine] | 1 | > 0.5 |
| COc1ccc(COc2cnc3c(c2)CN(C(=O)c2ccc(-n4ccnc4)nc2)CC3)nc1 [Example 24, 6-[6-(1H-Imidazol-1-yl)pyridine-3-carbonyl]-3-[(5-methoxypyridin-2-yl)methoxy]-5,6,7,8-tetrahydro-1,6-naphthyridine] | 0.00206 | < 0.1 |
| COc1ccc(COc2ccc3c(c2)CN(C(=O)c2ccc(OC)nc2)CCO3)nc1 [Example 25, 7-[(5-Methoxypyridin-2-yl)methoxy]-4-(6-methoxypyridine-3-carbonyl)-2,3,4,5-tetrahydro-1,4-benzoxazepine] | 0.153 | 0.1 to 0.5 |
| COc1ccc(COc2ccc3c(n2)CN(C(=O)c2ccc(OC)nc2)CC3)nc1 [Example 26, 2-[(5-Methoxypyridin-2-yl)methoxy]-7-(6-methoxypyridine-3-carbonyl)-5,6,7,8-tetrahydro-1,7-naphthyridine] | 0.0393 | < 0.1 |
| COc1ccc(COc2cnc3c(c2)CN(c2ccc(OC)cn2)CC3)nc1 [Example 27, 6-(5-Methoxypyridin-2-yl)-3-[(5-methoxypyridin-2-yl)methoxy]-5,6,7,8-tetrahydro-1,6-naphthyridine] | 0.00319 | < 0.1 |
| COc1ccc(COc2ccc3c(c2)CN(C(=O)c2ccc(OC)nc2)CC3C)nc1 (centres unmarked) [Example 28] | – | < 0.1 |
| COc1ccc(COc2ccc3c(c2)CN(c2cnn(C)c2)CC3)nc1 [Example 29, 7-[(5-Methoxypyridin-2-yl)methoxy]-2-(1-methyl-1H-pyrazol-4-yl)-1,2,3,4-tetrahydroisoquinoline] | 0.161 | 0.1 to 0.5 |
| COc1ccc(OCCn2cnc3c2CN(C(=O)c2ccc(OC)nc2)CC3)nc1 [Example 30, 2-Methoxy-5-(3-{2-[(5-methoxypyridin-2-yl)oxy]ethyl}-3H,4H,5H,6H,7H-imidazo[4,5-c]pyridine-5-carbonyl)pyridine] | 0.704 | > 0.5 |
| COc1ccc(COc2ccc3c(c2)CN(C(=O)c2ccc(OC)nc2)C(C)C3)nc1 (centres unmarked) [Example 31, 7-[(5-Methoxypyridin-2-yl)methoxy]-2-(6-methoxypyridine-3-carbonyl)-3-methyl-1,2,3,4-tetrahydroisoquinoline] | 0.108 | 0.1 to 0.5 |
| CC(=O)N1CCc2ccc(OCc3ccc(O)cn3)cc2C1 [Example 32, 1-{7-[(5-Hydroxypyridin-2-yl)methoxy]-1,2,3,4-tetrahydroisoquinolin-2-yl}ethan-1-one] | 0.191 | 0.1 to 0.5 |

Further lines, results first:

| EC50 [1] [µM] | EC50 [2] [µM] | Structure (SMILES) |
| --- | --- | --- |
| 0.00301 | < 0.1 | C=CCOc1ccc(C(=O)N2CCc3ncc(OCc4ccc(OC)cn4)cc3C2)cn1 [Example 24.1] |
| – | < 0.1 | COCCOc1ccc(C(=O)N2CCc3ncc(OCc4ccc(OC)cn4)cc3C2)cn1 [Example 24.2] |
| 0.00445 | < 0.1 | COc1ccc(COc2cnc3c(c2)CN(C(=O)c2ccc(OCCF)nc2)CC3)nc1 [Example 24.3] |
| 0.043 | < 0.1 | COCCn1cc(C(=O)N2CCc3ncc(OCc4ccc(OC)cn4)cc3C2)ccc1=O [Example 24.4] |
| – | > 0.5 | COc1ccc(Cn2c3c(ccc2=O)CCN(C(=O)c2ccc(OC)nc2)C3)nc1 [Example 26.1] |
| 0.0134 | < 0.1 | COc1ccc(COc2ccc3c(c2)CN(c2ccc(=O)n(C)n2)CC3)nc1 [Example 27.1] |
| 0.26 | 0.1 to 0.5 | COc1ccc(COc2ccc3c(c2)CN(c2ccn(C)c(=O)c2)CC3)nc1 [Example 27.2] |
| 0.086 | < 0.1 | COc1ccc(COc2ccc3c(c2)CN(c2ccc(=O)n(C)c2)CC3)nc1 [Example 29.1] |
